Measured values as given in patent US20080200454A1, “CARBON-LINKED TETRAHYDRO-PYRAZOLO-PYRIDINE MODULATORS OF CATHEPSIN S” (priority 2007, published 2008).
Read-outs that look alike come from different tables or passages of the source.

Molecular target: Recombinant human cathepsin S (CatS) (Homo sapiens, UniProt P25774)
Experiment: Recombinant human cathepsin S (CatS) inhibition assay, fluorogenic substrate Z-Valine-Valine-Arginine-AMC;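 also: Baculovirus-expressed CatS in pH 5.0 sodium acetate buffer with DTT and NaCl, fluorescence read each minute over 20 min, inhibition derived from rate slope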

Sequence of Recombinant human cathepsin S (CatS) (P25774 115-331): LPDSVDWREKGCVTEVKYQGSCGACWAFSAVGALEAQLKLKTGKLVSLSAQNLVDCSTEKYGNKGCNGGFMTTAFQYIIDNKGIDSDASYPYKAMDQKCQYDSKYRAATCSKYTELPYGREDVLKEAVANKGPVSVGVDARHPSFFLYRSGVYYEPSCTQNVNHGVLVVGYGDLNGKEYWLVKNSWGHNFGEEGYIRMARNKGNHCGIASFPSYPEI

SMILES	IC50 [nM]	IC50 (CatS IC50) [nM]
CS(=O)(=O)N1CCc2c(c(-c3ccc(Cl)c(C#Cc4ccc5c(c4)CN(C4CC4)CC5)c3)nn2CCCN2CCN(c3ccccc3)CC2)C1 [Example 280, 7-[(2-Chloro-5-{5-(methylsulfonyl)-1-[3-(4-phenylpiperazin-1-yl)propyl]-4,5,6,7-tetrahydro-1H-pyrazolo[4,3-c]pyridin-3-yl}phenyl)ethynyl]-2-cyclopropyl-1,2,3,4-tetrahydroisoquinoline]	40	
C[C@H]1COCCN1CCCn1nc(-c2ccc(Cl)c(C#Cc3ccc4c(c3)CN(C)CC4)c2)c2c1CCN(S(C)(=O)=O)C2 [Example 281, 7-({2-Chloro-5-[1-{3-[(3S)-3-methylmorpholin-4-yl]propyl}-5-(methylsulfonyl)-4,5,6,7-tetrahydro-1H-pyrazolo[4,3-c]pyridin-3-yl]phenyl}ethynyl)-2-methyl-1,2,3,4-tetrahydroisoquinoline]		120
C[C@H]1COCCN1CCCn1nc(-c2ccc(Cl)c(C#Cc3ccc4c(c3)CN(C3CC3)CC4)c2)c2c1CCN(C(N)=O)C2 [Example 282, 3-{4-Chloro-3-[(2-cyclopropyl-1,2,3,4-tetrahydroisoquinolin-7-yl)ethynyl]phenyl}-1-{3-[(3S)-3-methylmorpholin-4-yl]propyl}-1,4,6,7-tetrahydro-5H-pyrazolo[4,3-c]pyridine-5-carboxamide]	150	
C[C@H]1COCCN1CCCn1nc(-c2ccc(Cl)c(C#Cc3ccc4c(c3)CN(C3CC3)CC4)c2)c2c1CCN(C(=O)C(N)=O)C2 [Example 283, 2-(3-{4-Chloro-3-[(2-cyclopropyl-1,2,3,4-tetrahydroisoquinolin-7-yl)ethynyl]phenyl}-1-{3-[(3S)-3-methylmorpholin-4-yl]propyl}-1,4,6,7-tetrahydro-5H-pyrazolo[4,3-c]pyridin-5-yl)-2-oxoacetamide]		100
CS(=O)(=O)N1CCc2c(c(-c3ccc(Cl)c(C#Cc4ccc5c(c4)CCN(C4CC4)C5)c3)nn2CCCN2CCOCC2)C1 [Example 284, 6-({2-Chloro-5-[5-(methylsulfonyl)-1-(3-morpholin-4-ylpropyl)-4,5,6,7-tetrahydro-1H-pyrazolo[4,3-c]pyridin-3-yl]phenyl}ethynyl)-2-cyclopropyl-1,2,3,4-tetrahydroisoquinoline]		200
C[C@H]1COCCN1CCCn1nc(-c2ccc(Cl)c(C#Cc3ccc(Cl)c(CNCc4ccccc4)c3)c2)c2c1CCN(S(C)(=O)=O)C2 [Example 286, 1-[2-Chloro-5-({2-chloro-5-[1-{3-[(3S)-3-methylmorpholin-4-yl]propyl}-5-(methylsulfonyl)-4,5,6,7-tetrahydro-1H-pyrazolo[4,3-c]pyridin-3-yl]phenyl}ethynyl)phenyl]-N-(phenylmethyl)methanamine]		30
CS(=O)(=O)N1CCc2c(c(-c3ccc(Cl)c(C#Cc4ccc(Cl)c(CNCc5ccccc5)c4)c3)nn2CCCN2CCOCC2)C1 [Example 287, 1-[2-Chloro-5-({2-chloro-5-[5-(methylsulfonyl)-1-(3-morpholin-4-ylpropyl)-4,5,6,7-tetrahydro-1H-pyrazolo[4,3-c]pyridin-3-yl]phenyl}ethynyl)phenyl]-N-(phenylmethyl)methanamine]		50
C[C@H]1COCCN1CCCn1nc(-c2ccc(Cl)c(C#Cc3ccc(Cl)c(CNCc4ccccn4)c3)c2)c2c1CCN(C(=O)C(N)=O)C2 [Example 289, 2-(3-{4-Chloro-3-[(4-chloro-3-{[(pyridin-2-ylmethyl)amino]methyl}phenyl)ethynyl]phenyl}-1-{3-[(3S)-3-methylmorpholin-4-yl]propyl}-1,4,6,7-tetrahydro-5H-pyrazolo[4,3-c]pyridin-5-yl)-2-oxoacetamide]		10
CS(=O)(=O)N1CCc2c(c(-c3ccc(Cl)c(C#Cc4ccc(F)c(CNCc5ccccc5)c4)c3)nn2CCCN2CCOCC2)C1 [Example 290, 1-[5-({2-Chloro-5-[5-(methylsulfonyl)-1-(3-morpholin-4-ylpropyl)-4,5,6,7-tetrahydro-1H-pyrazolo[4,3-c]pyridin-3-yl]phenyl}ethynyl)-2-fluorophenyl]-N-(phenylmethyl)methanamine]		210
NC(=O)N1CCc2c(c(-c3ccc(Cl)c(C#Cc4ccc(Cl)c(CNCc5ccccn5)c4)c3)nn2CCCN2CCSCC2)C1 [Example 292, 3-{4-Chloro-3-[(4-chloro-3-{[(pyridin-2-ylmethyl)amino]methyl}phenyl)ethynyl]phenyl}-1-(3-thiomorpholin-4-ylpropyl)-1,4,6,7-tetrahydro-5H-pyrazolo[4,3-c]pyridine-5-carboxamide]		20
C[C@H]1COCCN1CCCn1nc(-c2ccc(Cl)c(C#Cc3ccc(Cl)c(CNCCO)c3)c2)c2c1CCN(S(C)(=O)=O)C2 [Example 293, 2-({[2-Chloro-5-({2-chloro-5-[1-{3-[(3S)-3-methylmorpholin-4-yl]propyl}-5-(methylsulfonyl)-4,5,6,7-tetrahydro-1H-pyrazolo[4,3-c]pyridin-3-yl]phenyl}ethynyl)phenyl]methyl}amino)ethanol]		50
CS(=O)(=O)N1CCc2c(c(-c3ccc(Cl)c(C#CCCO)c3)nn2CCCN2CCOCC2)C1 [Example 299, 4-{2-Chloro-5-[5-(methylsulfonyl)-1-(3-morpholin-4-ylpropyl)-4,5,6,7-tetrahydro-1H-pyrazolo[4,3-c]pyridin-3-yl]phenyl}but-3-yn-1-ol]	4800	

Now from value to compound, other results behind:

IC50 [nM]	SMILES	IC50 (CatS IC50) [nM]
20	C[C@H]1COCCN1CCCn1nc(-c2ccc(Cl)c(C#Cc3ccc(Cl)c(CNCc4ccccc4)c3)c2)c2c1CCN(C(=O)C(N)=O)C2 [Example 285, 2-(3-{4-Chloro-3-[(4-chloro-3-{[(phenylmethyl)amino]methyl}phenyl)ethynyl]phenyl}-1-{3-[(3S)-3-methylmorpholin-4-yl]propyl}-1,4,6,7-tetrahydro-5H-pyrazolo[4,3-c]pyridin-5-yl)-2-oxoacetamide]	
120	CS(=O)(=O)N1CCc2c(c(-c3ccc(Cl)c(CCc4ccc(Cl)c(CNCc5ccccc5)c4)c3)nn2CCCN2CCOCC2)C1 [Example 288, 1-[2-Chloro-5-(2-{2-chloro-5-[5-(methylsulfonyl)-1-(3-morpholin-4-ylpropyl)-4,5,6,7-tetrahydro-1H-pyrazolo[4,3-c]pyridin-3-yl]phenyl}ethyl)phenyl]-N-(phenylmethyl)methanamine]	
30	NC(=O)N1CCc2c(c(-c3ccc(Cl)c(C#Cc4ccc(Cl)c(CNCc5ccccc5)c4)c3)nn2CCCN2CCSCC2)C1 [Example 291, 3-{4-Chloro-3-[(4-chloro-3-{[(phenylmethyl)amino]methyl}phenyl)ethynyl]phenyl}-1-(3-thiomorpholin-4-ylpropyl)-1,4,6,7-tetrahydro-5H-pyrazolo[4,3-c]pyridine-5-carboxamide]	
20	COC(=O)CNCc1cc(C#Cc2cc(-c3nn(CCCN4CCOC[C@@H]4C)c4c3CN(C(=O)C(N)=O)CC4)ccc2Cl)ccc1Cl [Example 294, Methyl N-[(5-{[5-(5-[amino(oxo)acetyl]-1-{3-[(3S)-3-methylmorpholin-4-yl]propyl}-4,5,6,7-tetrahydro-1H-pyrazolo[4,3-c]pyridin-3-yl)-2-chlorophenyl]ethynyl}-2-chlorophenyl)methyl]glycinate]	
30	C[C@H]1COCCN1CCCn1nc(-c2ccc(Cl)c(C#Cc3ccc(Cl)c(CNCCO)c3)c2)c2c1CCN(C(=O)C(N)=O)C2 [Example 295, 2-(3-{4-Chloro-3-[(4-chloro-3-{[(2-hydroxyethyl)amino]methyl}phenyl)ethynyl]phenyl}-1-{3-[(3S)-3-methylmorpholin-4-yl]propyl}-1,4,6,7-tetrahydro-5H-pyrazolo[4,3-c]pyridin-5-yl)-2-oxoacetamide]	
15500	CS(=O)(=O)N1CCc2c(c(-c3cccc(CCc4cccc(O)c4)c3)nn2CCCN2CCOCC2)C1 [Example 296, 3-(2-{3-[5-(Methylsulfonyl)-1-(3-morpholin-4-ylpropyl)-4,5,6,7-tetrahydro-1H-pyrazolo[4,3-c]pyridin-3-yl]phenyl}ethyl)phenol]	
1600	Clc1ccc(C#Cc2cc(-c3nn(CCCN4CCOCC4)c4c3CNCC4)ccc2Cl)cc1 [Example 297, 3-{4-Chloro-3-[(4-chlorophenyl)ethynyl]phenyl}-1-(3-morpholin-4-ylpropyl)-4,5,6,7-tetrahydro-1H-pyrazolo[4,3-c]pyridine]	
50	CS(=O)(=O)N1CCc2c(c(-c3ccc(Cl)c(C#Cc4ccc(Cl)cc4)c3)nn2CC(O)CN2CCC3(CCNC3=O)CC2)C1 (stereo not shown) [Example 298, 8-{3-[3-{4-Chloro-3-[(4-chlorophenyl)ethynyl]phenyl}-5-(methylsulfonyl)-4,5,6,7-tetrahydro-1H-pyrazolo[4,3-c]pyridin-1-yl]-2-hydroxypropyl}-2,8-diazaspiro[4.5]decan-1-one]	
9200	CS(=O)(=O)N1CCc2c(c(-c3ccc(Cl)c(CCCCO)c3)nn2CCCN2CCOCC2)C1 [Example 300, 4-{2-Chloro-5-[5-(methylsulfonyl)-1-(3-morpholin-4-ylpropyl)-4,5,6,7-tetrahydro-1H-pyrazolo[4,3-c]pyridin-3-yl]phenyl}butan-1-ol]	
7050	CS(=O)(=O)N1CCc2c(c(-c3ccc(Cl)c(CCCCCO)c3)nn2CCCN2CCOCC2)C1 [Example 301, 5-{2-Chloro-5-[5-(methylsulfonyl)-1-(3-morpholin-4-ylpropyl)-4,5,6,7-tetrahydro-1H-pyrazolo[4,3-c]pyridin-3-yl]phenyl}pentan-1-ol]	
11500	CS(=O)(=O)N1CCc2c(c(-c3ccc(Cl)c(CCCO)c3)nn2CCCN2CCOCC2)C1 [Example 302, 3-{2-Chloro-5-[5-(methylsulfonyl)-1-(3-morpholin-4-ylpropyl)-4,5,6,7-tetrahydro-1H-pyrazolo[4,3-c]pyridin-3-yl]phenyl}propan-1-ol]	
> 20000	CS(=O)(=O)N1CCc2c(c(-c3ccc(Cl)c(C#CCN)c3)nn2CCCN2CCOCC2)C1 [Example 303, 3-{2-Chloro-5-[5-(methylsulfonyl)-1-(3-morpholin-4-ylpropyl)-4,5,6,7-tetrahydro-1H-pyrazolo[4,3-c]pyridin-3-yl]phenyl}prop-2-yn-1-amine]	
17000	CS(=O)(=O)N1CCc2c(c(-c3ccc(Cl)c(CCCN)c3)nn2CCCN2CCOCC2)C1 [Example 304, 3-{2-Chloro-5-[5-(methylsulfonyl)-1-(3-morpholin-4-ylpropyl)-4,5,6,7-tetrahydro-1H-pyrazolo[4,3-c]pyridin-3-yl]phenyl}propan-1-amine]	
